From PMC6594058, “A Research‐inspired biochemistry laboratory module–combining expression, purification, crystallization, structure‐solving, and characterization of a flavodoxin‐like protein” (Biochemistry and Molecular Biology Education, 2019)

Biological target: T1, NrdI (Bacillus cereus, UniProt Q81G57)
T1 construct: untagged by purification route (IEX, SEC); pET-22b(+) XbaI/HindIII; E. coli BL21(DE3)
T1 sequence (Q81G57 1-119): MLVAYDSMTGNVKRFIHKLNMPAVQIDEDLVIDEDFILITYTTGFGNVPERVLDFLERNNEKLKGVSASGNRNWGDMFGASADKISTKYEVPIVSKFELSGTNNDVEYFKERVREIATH
Test: X-ray crystallography (students re-solve previously collected semiquinone data); UV-vis of co-purified cofactor with dithionite titration
Assay type: binding
Settings: crystal in semiquinone state (FMNH•); 1.15 Å; UV-vis in 50 mM Tris-HCl pH 7.5; native bound cofactor

In the case of `Cc1cc2nc3c(=O)[nH]c(=O)nc-3n(C[C@H](O)[C@H](O)[C@H](O)COP(=O)(O)O)c2cc1C` [FMN], the “X-ray crystallography (students re-solve previously collected semiquinone data);” value is reported as “Overall structure of the B. cereus NrdI, with the FMN cofactor represented as sticks”.
